In patent publication US20250035616A1, “Organoid Compositions” (SHIMADZU CORPORATION, priority 2023, published 2025):

Tests used:
[1] = system: HYDROX-cultured human liver organoid composition
Experimental: In this Example, the human liver organoid produced in Reference Example 1 was cultured with HYDROX (FIG. 1A) to produce a human liver organoid composition including the HYDROX, and its liver function was identified. The Matrigel-cultured human liver organoid produced in Reference Example 1 was treated with TrypLE Select so that the Matrigel was degraded. The resultant cell cluster was suspended in the medium for a human liver organoid, and was seeded on a HYDROX plate at 300 μL/well, followed by three-dimensional culture (HYDROX culture). The cell cluster was reseeded on a new HYDROX plate every 7 days. The HYDROX plate was produced as described below. In a 48-well adhesive plate, a HYDROX raw material polymer (Psar-PLLA) was mixed with 95% ethanol (Nacalai tesque) at a concentration of 10 mg/mL, and the mixture was warmed at 70° C. for 10 minutes. The dissolved polymer solution was dropped into a culture plate, and was dried for 8 hours or more to produce the human liver organoid composition including the HYDROX. In this Example and the following Examples, the human liver organoid composition including the HYDROX is referred to as “HYDROX-cultured human liver organoid composition.”
(§1) Further, at the initial stage of the development of a new drug, the safety of the drug needs to be accurately evaluated by a hepatotoxicity evaluation test. Accordingly, an investigation was made on the potential of the HYDROX-cultured human liver organoid composition to be applied to the hepatotoxicity evaluation test.

primary human liver cell = system: primary human liver cell
Experimental: In this Reference Example, 1 lot (lot name: HC4-24, XenoTech) of cultured primary human liver cells were cultured. The cells were rapidly thawed in a shaking water bath at 37° C., and were suspended in OptiTHAW Hepatocyte Isolation Kit (XenoTech) that had been preheated, followed by centrifugation at 100 g and room temperature for 5 minutes. The liver cells were suspended in HCM (Lonza) so that their density became 2.5×10^5 cells/cm^2, followed by seeding on 48-well Corning^RBioCoat™ Collagen I-coated Microplates (Corning). After the cells had been cultured for 48 hours, various tests were performed.
as §1

SMILES	cell viability [1]	cell viability (primary human liver cell)
Cc1c(C)c2c(c(C)c1O)CCC(C)(COc1ccc(CC3SC(=O)NC3=O)cc1)O2 (centres unmarked) [Troglitazone]	the viability reduced in accordance with the concentration of each of the drugs	the viability reduced in accordance with the concentration of each of the drugs
CC(=O)Nc1ccc(O)cc1 [acetaminophen]	the viability reduced in accordance with the concentration of each of the drugs	
CCCCc1oc2ccccc2c1C(=O)c1cc(I)c(OCCN(CC)CC)c(I)c1 [amiodarone]	the viability reduced in accordance with the concentration of each of the drugs	the viability reduced in accordance with the concentration of each of the drugs
